Patent US20150352099A1, “Compositions and Methods of Reducing Sedation” (Mentinova Inc., priority 2014, published 2015)
Structures can show the parent of a compound that is named as a salt.

What was measured:
[1] = test system: Parkinsonian non-human primates; experiment: Drug effects on the nervous system (DENS) sedation scores, nalbuphine monotherapy; type: in vivo; settings: for Sedation Items: Appetite / Sedation Items: Attentiveness / Sedation Items: Eye Movement / Sedation Items: Mouth (excessive salivation, drooling) / Sedation Items: Reactivity: DENS score, total of all intervals; for Sedation Items: Total: total sedation score
Description: Parkinsonian non-human primates (n=6) were injected (s.c.) with Nalbuphine HCl (NB, dissolved in saline) and evaluated for changes in parkinsonian motor disability (MDS) and drug effects on the nervous system (DENS). Evaluations were performed immediately before injection (baseline), at 30 minutes post-injection and again every 20 minutes thereafter for 110 minutes or until effects were no longer observable. Five NB doses (0.0, 0.016, 0.05, 0.16, 0.50 mg/kg) were tested in each animal with each dose tested 3 times in all animals.
Itemized Sedation scores (see Uthayathas et al., “Assessment of adverse effects of neurotropic drugs in monkeys with the ‘drug effects on the nervous system’ (DENS) scale,” J Neurosci Methods. 2013 Apr. 30; 215(1):97-102, for complete description of the DENS scale, incorporated by reference herein in its entirety). The items in this scale are given in the table with the exception of “Involuntary Movements”, “Bowel” and “Bladder”, which were omitted because they were not scored with this scale. Scores are total values from adding all intervals. Higher scores reflect increased sedative effects. […] Values represent the means±SEM of all animals (n=6).

[2] = Pharmacokinetic parameters (Cmax, AUC, Tmax) of opioid given alone or with dopaminergic agent; settings: sc, 0.25 mg/kg; for AUC / Cmax: plasma; for Tmax: serum
[3] = test system: Parkinsonian non-human primates; experiment: Parkinsonian motor disability scores (MDS) versus sedation scores; type: in vivo; settings: nalbuphine 0.016 mg/kg-0.50 mg/kg in primates; the FIGURE
Description: The foregoing summary, as well as the following detailed description of the invention, will be better understood when read in conjunction with the appended drawings. The FIGURE is a graph showing total sedation scores as a function of motor disability in non-human primates treated with nalbuphine HCl monotherapy.
In other words, severity of dopamine deficiency is a predictor of the sedation severity for the same dose of nalbuphine given to different animals.
Parkinsonian non-human primates (n=6) were injected (s.c.) with Nalbuphine HCl (NB, dissolved in saline) and evaluated for changes in parkinsonian motor disability (MDS) and drug effects on the nervous system (DENS). Evaluations were performed immediately before injection (baseline), at 30 minutes post-injection and again every 20 minutes thereafter for 110 minutes or until effects were no longer observable. […]
Animals (n=6) were injected (s.c.) with NB immediately prior to receiving L-dopa (LD; levodopa methyl ester plus 25% benserazide, dissolved in saline and given s.c.). The LD dose was determined individually for each animal based on ‘on’ response and consistency of dyskinesia. Animals were evaluated for changes in parkinsonian motor disability scores (MDS), drug effects on the nervous system (Sedation) and severity of dyskinesias. […]

[4] = NB 0.016 mg/kg s.c., mean ± SEM n=6
[5] = NB 0.05 mg/kg s.c., mean ± SEM n=6
[6] = NB 0.16 mg/kg s.c., mean ± SEM n=6
[7] = NB 0.5 mg/kg s.c., mean ± SEM n=6

For `Oc1ccc2c3c1O[C@H]1[C@@H](O)CC[C@@]4(O)[C@@H](C2)N(CC2CCC2)CC[C@]314` [NB, Nalbuphine HCl], the “Sedation Items: Appetite” value [1, 4] was 0.13 ± 0.13, the “Sedation Items: Attentiveness” value [1, 4] was 2.00 ± 0.73 and the “Sedation Items: Eye Movement” value [1, 4] was 0.17 ± 0.17. The “Sedation Items: Mouth (excessive salivation, drooling)” value (shortened to “Sedation Items: Mouth”) [1, 4] was 0.13 ± 0.09, the “Sedation Items: Reactivity” value [1, 4] was 0.67 ± 0.36 and the “Sedation Items: Total” value ([1]; NB 0.016 mg/kg s.c.) was 3.08. The “Sedation Items: Appetite” value [1, 5] was 0.56 ± 0.26, the “Sedation Items: Attentiveness” value [1, 5] was 2.75 ± 1.07 and the “Sedation Items: Eye Movement” value [1, 5] was 0.54 ± 0.25. The “Sedation Items: Mouth” value [1, 5] was 0.17 ± 0.11, the “Sedation Items: Reactivity” value [1, 5] was 1.58 ± 0.85 and the “Sedation Items: Total” value ([1]; NB 0.05 mg/kg s.c.) was 5.61. For the same molecule, the “Sedation Items: Mouth” value ([1]; NB 0.16 mg/kg s.c., mean n=6) was 0.00, the “Sedation Items: Appetite” value [1, 6] was 1.48 ± 1.03 and the “Sedation Items: Attentiveness” value [1, 6] was 3.17 ± 1.51. The “Sedation Items: Eye Movement” value [1, 6] was 2.44 ± 0.94, the “Sedation Items: Reactivity” value [1, 6] was 4.1 ± 1.60 and the “Sedation Items: Total” value ([1]; NB 0.16 mg/kg s.c.) was 11.19. For the same molecule, the “Sedation Items: Appetite” value [1, 7] was 4.79 ± 0.78, the “Sedation Items: Attentiveness” value [1, 7] was 5.17 ± 1.34 and the “Sedation Items: Eye Movement” value [1, 7] was 3.29 ± 1.10. For the same molecule, the “Sedation Items: Mouth” value [1, 7] was 1.17 ± 1.07, the “Sedation Items: Reactivity” value [1, 7] was 6.65 ± 2.15 and the “Sedation Items: Total” value ([1]; NB 0.5 mg/kg s.c.) was 21.06. The AUC ([2]; average AUC of opioid, nalbuphine 0.25 mg/kg subcutaneously with L-DOPA 25 mg/kg subcutaneously) was roughly 89 ng·h/mL, the AUC ([2]; average AUC, nalbuphine 0.25 mg/kg subcutaneously, alone) was roughly 96 ng·h/mL and the Cmax ([2]; average Cmax of opioid, nalbuphine 0.25 mg/kg subcutaneously with L-DOPA 25 mg/kg subcutaneously) was roughly 55 ng/mL. For the same molecule, the Cmax ([2]; average Cmax, nalbuphine 0.25 mg/kg subcutaneously, alone) was roughly 49 ng/mL, the Tmax ([2]; average Tmax of opioid, nalbuphine 0.25 mg/kg subcutaneously with L-DOPA 25 mg/kg subcutaneously) was roughly 32 min and the Tmax ([2]; average Tmax, nalbuphine 0.25 mg/kg subcutaneously, alone) was roughly 37 min. For the same molecule, the “parkinsonian motor disability scores (MDS) versus sedation scores” value [3] was “correlate with sedation scores”.
